Assay type in all cases: biochemical
In one assay the target is Pim-1 (Homo sapiens (Human), UniProt P11309). Kind of assay: Pim-1 kinase assay. The conditions noted are these: 1 mM ATP; read-out: Pim1 IC50. The protocol:
Supplementation of the STOP buffer with beads and stopping the reactions were done under reduced light. Prior to the stopping reactions STOP buffer with beads was preincubated for 1 h in the dark at room temperature. After stopping the reactions, plates were incubated for 1 h in the dark at room temperature before reading on a PHERAstar FS plate reader (BMG Labtech) under reduced light.

The target in the next assay is Pim-2 (Homo sapiens (Human), UniProt Q9P1W9). Nature of the assay: Pim-2 kinase assay. The conditions noted are these: 1 mM ATP; read-out: Pim2 IC50. The protocol: Pim-2 kinase assay—20 μL reactions were run in white 384 well polystyrene plates dotted with 0.8 μL compound/DMSO in the assay buffer (50 mM Tris, pH 7.5, 0.01% Tween-20, 5 mM mgCl2, 0.01% BSA, 5 mM DTT), containing […] Fluorescein-labeled CREBtide peptide substrate (Invitrogen PV3508), 1 mM ATP, and 1 nM enzyme (Invitrogen PV3649) for 2 h at 25° C. Reactions were stopped by addition of 10 μL TR-FRET Dilution Buffer (Invitrogen PV3574) with 30 mM EDTA and 1.5 nM LanthaScreen Tb-CREB pSer133 antibody (Invitrogen PV3566). After 30 min. incubation at room temperature, plates were read on a PHERAstar FS plate reader (BMG Labtech).

The target in the next assay is Pim-3 (Homo sapiens (Human), UniProt Q86V86). Kind of assay: Pim-3 kinase assay. The conditions noted are these: 1 mM ATP; read-out: Pim3 IC50. As to the method: Pim-1 and Pim-3 kinase assays-20 μL reactions were run in white 384 well polystyrene plates dotted with 0.8 μL compound/DMSO in the assay buffer (50 mM Tris, pH 7.5, 0.01% Tween-20, 5 mM mgCl2, 0.01% BSA, 5 mM DTT), containing […] Biotin-labeled BAD peptide substrate (AnaSpec 62269), 1 mM ATP, and 2.5 pM (Pim-1, Invitrogen PV3503) or 1.25 pM (Pim-3, Millipore 14-738) enzyme for 1 h at 25° C. Reactions were stopped by addition of 10 μL STOP Buffer (150 mM Tris, pH=7.5, 150 mM NaCl, 75 mM EDTA, 0.01% Tween-20, 0.3% BSA,) supplemented with Phospho-Bad (Ser112) Antibody (Cell Signaling 9291) diluted 666-fold, and Streptavidin donor beads (PerkinElmer 6760002) along with Protein-A acceptor beads (PerkinElmer 6760137) at 15 μg/mL each. Supplementation of the STOP buffer with beads and stopping the reactions were done under reduced light. Prior to the stopping reactions STOP buffer with beads was preincubated for 1 h in the dark at room temperature. After stopping the reactions, plates were incubated for 1 h in the dark at room temperature before reading on a PHERAstar FS plate reader (BMG Labtech) under reduced light.

As a reminder, the IC50 is the midpoint of a concentration-inhibition curve.

The structures appear in SMILES notation. Some results are limits rather than exact numbers.

Chain of Pim-1 (P11309 whole entry): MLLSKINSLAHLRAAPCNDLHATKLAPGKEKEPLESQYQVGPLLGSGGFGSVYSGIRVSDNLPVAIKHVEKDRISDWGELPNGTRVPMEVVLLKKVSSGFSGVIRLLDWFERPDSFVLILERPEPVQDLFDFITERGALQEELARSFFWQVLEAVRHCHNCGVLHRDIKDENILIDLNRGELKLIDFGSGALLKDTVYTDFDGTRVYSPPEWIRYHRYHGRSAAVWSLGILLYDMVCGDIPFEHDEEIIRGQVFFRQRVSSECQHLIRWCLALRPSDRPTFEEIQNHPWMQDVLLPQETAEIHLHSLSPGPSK
Chain of Pim-2 (Q9P1W9 whole entry): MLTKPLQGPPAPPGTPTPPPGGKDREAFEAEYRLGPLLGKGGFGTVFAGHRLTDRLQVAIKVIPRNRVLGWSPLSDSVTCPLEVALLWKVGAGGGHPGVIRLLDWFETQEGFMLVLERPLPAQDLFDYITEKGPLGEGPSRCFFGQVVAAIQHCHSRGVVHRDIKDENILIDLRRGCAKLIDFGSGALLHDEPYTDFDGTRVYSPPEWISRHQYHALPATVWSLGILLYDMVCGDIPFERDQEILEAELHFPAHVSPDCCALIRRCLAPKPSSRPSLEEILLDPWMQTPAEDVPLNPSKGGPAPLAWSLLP

As for `C[C@H]1CN(c2ccncc2NCc2ccc(F)c(-c3c(F)cccc3C#N)n2)C[C@@H](N)[C@@H]1O` [Example 17, 2-(6-((4-((3R,4R,5S)-3-Amino-4-hydroxy-5-methylpiperidin-1-yl)pyridin-3-ylamino)methyl)-3-fluoropyridin-2-yl)-3-fluorobenzonitrile], the IC50 is below 0.01 µM at Pim-1, 0.1 to 1 µM at Pim-2 and at most 0.01 µM at Pim-3.
`C[C@H]1CN(c2ccncc2NCc2ccc(F)c(-c3ccccc3F)n2)C[C@@H](N)[C@@H]1O` [Example 18, (3R,4R,5S)-3-Amino-1-(3-(((5-fluoro-6-(2-fluorophenyl)pyridin-2-yl)methyl)amino)pyridin-4-yl)-5-methylpiperidin-4-ol]: the IC50 was below 0.01 µM at Pim-1, 0.1 to 1 µM on Pim-2 and at most 0.01 µM at Pim-3.
As to `C[C@@H]1C[C@H](N)CN(c2ccncc2NCc2ccc(F)c(-c3c(F)cccc3F)n2)C1` [Example 19, 4-[(3S,5R)-3-Amino-5-methylpiperidin-1-yl]-N-{[6-(2,6-difluorophenyl)-5-fluoropyridin-2-yl]methyl}pyridin-3-amine], the IC50 at Pim-1 was below 0.01 µM; on Pim-2 it was at most 0.1 µM; at Pim-3, at most 0.01 µM.
In the case of `COc1cccc(F)c1-c1nc(CNc2cnccc2N2C[C@H](C)C[C@H](N)C2)ccc1F` [Example 20, 4-((3S,5R)-3-Amino-5-methylpiperidin-1-yl)-N-((5-fluoro-6-(2-fluoro-6-methoxyphenyl)pyridin-2-yl)methyl)pyridin-3-amine], the IC50 on Pim-1 is below 0.01 µM; on Pim-2, 1 to 10 µM; on Pim-3, 0.01 to 0.05 µM.
The like results for `C[C@@H]1C[C@H](N)CN(c2ccncc2NCc2ccc(F)c(-c3c(F)cncc3F)n2)C1` [Example 21, 4-((3S,5R)-3-Amino-5-methylpiperidin-1-yl)-N-((3,3′,5′-trifluoro-2,4′-bipyridin-6-yl)methyl)pyridin-3-amine] were, in that order, below 0.01 µM, 0.1 to 1 µM and at most 0.01 µM.
Regarding `C[C@@H]1C[C@H](N)CN(c2ccncc2NCc2ccc(F)c(-c3c(F)cccc3C#N)n2)C1` [Example 22, 2-(6-((4-((3S,5R)-3-Amino-5-methylpiperidin-1-yl)pyridin-3-ylamino)methyl)-3-fluoropyridin-2-yl)-3-fluorobenzonitrile], the figures for the IC50 on Pim-1, at Pim-2 and at Pim-3 were below 0.01 µM, 0.1 to 1 µM and at most 0.01 µM, respectively.
`C[C@@H]1C[C@H](N)CN(c2ccncc2NCc2ccc(F)c(-c3ccccc3F)n2)C1` [Example 23, 4-((3S,5R)-3-Amino-5-methylpiperidin-1-yl)-N-((5-fluoro-6-(2-fluorophenyl)pyridin-2-yl)methyl)pyridin-3-amine]: the figures for the IC50 at Pim-1, at Pim-2 and at Pim-3 were below 0.01 µM, 0.1 to 1 µM and at most 0.01 µM, respectively.
Consider `C[C@H]1CN(c2ccncc2NCc2ccc(F)c(-c3c(F)cc(C(C)(C)C#N)cc3F)n2)C[C@@H](N)[C@@H]1O` [Example 24, 2-(4-{6-[({4-[(3R,4R,5S)-3-Amino-4-hydroxy-5-methylpiperidin-1-yl]pyridin-3-yl}amino)methyl]-3-fluoropyridin-2-yl}-3,5-difluorophenyl)-2-methylpropanenitrile], for which the IC50 at Pim-1 is below 0.01 µM; on Pim-2, at most 0.1 µM; on Pim-3, at most 0.01 µM.
With `C[C@@H]1C[C@H](N)CN(c2ccncc2NCc2ccc(F)c(-c3c(F)cc(C(C)(C)C#N)cc3F)n2)C1` [Example 24A, 2-(4-{6-[({4-[(3S,5R)-3-Amino-5-methylpiperidin-1-yl]pyridin-3-yl}amino)methyl]-3-fluoropyridin-2-yl}-3,5-difluorophenyl)-2-methylpropanenitrile], the values for the IC50 at Pim-1, at Pim-2 and at Pim-3 were below 0.01 µM, at most 0.1 µM and at most 0.01 µM, respectively.
Taken in the same sequence, the figures for `C[C@H]1CN(c2ccncc2NCc2ccc(F)c(-c3c(F)cccc3F)c2)C[C@@H](N)[C@@H]1O` [Example 24B, (3R,4R,5S)-3-Amino-5-methyl-1-(3-{[(2′,6,6′-trifluorobiphenyl-3-yl)methyl]amino}pyridin-4-yl)piperidin-4-ol] were below 0.01 µM, 0.1 to 1 µM and at most 0.01 µM.
Taken in the same sequence, the figures for `C[C@@H]1C[C@H](N)CN(c2ccncc2NCc2ccc(F)c(-c3c(F)cccc3F)c2)C1` [Example 25, 4-[(3S,5R)-3-Amino-5-methylpiperidin-1-yl]-N-[(2′,6,6′-trifluorobiphenyl-3-yl)methyl]pyridin-3-amine] were below 0.01 µM, 0.1 to 1 µM and at most 0.01 µM.
Taken in the same sequence, the figures for `C[C@@H]1C[C@H](N)CN(c2ccncc2NCc2ccc(F)c(-c3c(F)cc(C4(O)CCC4)cc3F)c2)C1` [Example 26, 1-(5′-((4-((3S,5R)-3-Amino-5-methylpiperidin-1-yl)pyridin-3-ylamino)methyl)-2,2′,6-trifluorobiphenyl-4-yl)cyclobutanol] were below 0.01 µM, 0.1 to 1 µM and at most 0.01 µM.
For `C[C@@H]1C[C@H](N)CN(c2ccncc2NCc2ccc(F)c(-c3c(F)cc(C4(O)CCOCC4)cc3F)c2)C1` [Example 27, 4-(5′-((4-((3S,5R)-3-Amino-5-methylpiperidin-1-yl)pyridin-3-ylamino)methyl)-2,2′,6-trifluorobiphenyl-4-yl)tetrahydro-2H-pyran-4-ol], the IC50 was below 0.01 µM on Pim-1, 0.1 to 1 µM on Pim-2 and at most 0.01 µM on Pim-3.
Taken in the same sequence, the figures for `C[C@H]1CN(c2ccncc2NCc2cccc(-c3c(F)cccc3F)n2)C[C@@H](N)[C@@H]1O` [Example 28, (3R,4R,5S)-3-Amino-1-[3-({[6-(2,6-difluorophenyl)pyridin-2-yl]methyl}amino)pyridin-4-yl]-5-methylpiperidin-4-ol] were below 0.01 µM, 0.1 to 1 µM and at most 0.01 µM.
On to `C[C@@H]1C[C@H](N)CN(c2ccncc2NCc2cccc(-c3c(F)cccc3F)n2)C1` [Example 29, 4-[(3S,5R)-3-Amino-5-methylpiperidin-1-yl]-N-{[6-(2,6-difluorophenyl)pyridin-2-yl]methyl}pyridin-3-amine], for which the values for the IC50 on Pim-1, at Pim-2 and on Pim-3 were below 0.01 µM, 0.1 to 1 µM and at most 0.01 µM, respectively.
The like results for `C[C@H]1CN(c2ccncc2NCc2ccnc(-c3c(F)cccc3F)n2)C[C@@H](N)[C@@H]1O` [Example 30, (3R,4R,5S)-3-Amino-1-[3-({[2-(2,6-difluorophenyl)pyrimidin-4-yl]methyl}amino)pyridin-4-yl]-5-methylpiperidin-4-ol] were, in that order, 0.01 to 0.05 µM, 1 to 10 µM and 0.01 to 0.05 µM.
For `C[C@@H]1C[C@H](N)CN(c2ccncc2NCc2ccnc(-c3c(F)cccc3F)n2)C1` [Example 31, 4-[(3S,5R)-3-Amino-5-methylpiperidin-1-yl]-N-{[2-(2,6-difluorophenyl)pyrimidin-4-yl]methyl}pyridin-3-amine], the 50% inhibitory concentration (IC50) on Pim-1 was below 0.01 µM; at Pim-2 it was 1 to 10 µM; at Pim-3, 0.01 to 0.05 µM.
Taken in the same sequence, the figures for `C[C@H]1CN(c2ccncc2NCc2ccc(F)c(-c3c(F)cc(N4CCOCC4)cc3F)n2)C[C@@H](N)[C@@H]1O` [Example 32, (3R,4R,5S)-3-Amino-1-(3-(((6-(2,6-difluoro-4-morpholinophenyl)-5-fluoropyridin-2-yl)methyl)amino)pyridin-4-yl)-5-methylpiperidin-4-ol] were below 0.01 µM, at most 0.1 µM and at most 0.01 µM.
Taken in the same sequence, the figures for `C[C@@H]1C[C@H](N)CN(c2ccncc2NCc2ccc(F)c(-c3c(F)cc(N4CCOCC4)cc3F)n2)C1` [Example 33, 4-((3S,5R)-3-Amino-5-methylpiperidin-1-yl)-N-((6-(2,6-difluoro-4-morpholinophenyl)-5-fluoropyridin-2-yl)methyl)pyridin-3-amine] were below 0.01 µM, at most 0.1 µM and at most 0.01 µM.
On to `C[C@H]1CN(c2ccncc2NCc2ccc(F)c(-c3c(F)cc(CO)cc3F)n2)C[C@@H](N)[C@@H]1O` [Example 35, (3R,4R,5S)-3-Amino-1-{3-[({6-[2,6-difluoro-4-(hydroxymethyl)phenyl]-5-fluoropyridin-2-yl}methyl)amino]pyridin-4-yl}-5-methylpiperidin-4-ol], for which the IC50 at Pim-1 is below 0.01 µM; on Pim-2, at most 0.1 µM; on Pim-3 it was at most 0.01 µM.
